Measurements as given in US11453647B2, “Benzimidazole derivatives as adenosine receptor antagonists” (Merck Patent GmbH, priority 2017, dated 2022).

Tests used:
Type in all cases: cell-based
A2B receptors = biological target: T1, A2B receptors (Homo sapiens, UniProt P29275); assay: functional cAMP (HTRF) assay, recombinant HEK293 cells expressing human A2B receptor, agonist NECA; parameters: expressed in transfected cells; host or cells: HEK293
T1 sequence (P29275 1-332): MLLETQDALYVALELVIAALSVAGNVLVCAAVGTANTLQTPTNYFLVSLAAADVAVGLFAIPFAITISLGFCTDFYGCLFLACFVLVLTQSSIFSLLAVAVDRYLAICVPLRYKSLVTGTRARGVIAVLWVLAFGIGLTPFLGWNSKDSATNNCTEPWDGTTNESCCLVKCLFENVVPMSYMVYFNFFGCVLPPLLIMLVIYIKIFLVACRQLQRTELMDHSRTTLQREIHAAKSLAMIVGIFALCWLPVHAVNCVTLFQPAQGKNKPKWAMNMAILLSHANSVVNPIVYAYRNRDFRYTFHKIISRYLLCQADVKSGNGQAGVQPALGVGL

human A3 receptor = biological target: T2, human A3 receptor (Homo sapiens, UniProt P0DMS8); assay: functional cAMP (HTRF) assay, recombinant CHO cells expressing human A3 receptor, forskolin, agonist IB-MECA
T2 construct: expressed in transfected cells; host or cells: CHO
T2 sequence (P0DMS8 1-318): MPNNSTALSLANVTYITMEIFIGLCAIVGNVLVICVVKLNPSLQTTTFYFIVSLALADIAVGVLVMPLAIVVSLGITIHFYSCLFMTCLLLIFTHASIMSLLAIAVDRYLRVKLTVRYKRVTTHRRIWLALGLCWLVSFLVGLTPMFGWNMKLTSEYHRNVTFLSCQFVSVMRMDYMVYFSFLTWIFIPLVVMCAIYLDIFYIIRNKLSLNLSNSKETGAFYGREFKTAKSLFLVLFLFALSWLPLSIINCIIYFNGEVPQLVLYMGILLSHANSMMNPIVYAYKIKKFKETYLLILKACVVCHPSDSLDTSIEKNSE
Method in brief: (§1)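 Recombinant CHO cells expressing A1 or A3 receptor (Gi-coupled) were stimulated with forskolin together with test compound and agonist (CPA for A1, IB-MECA for A3), incubated 30 min, then cellular cAMP was read by HTRF. Data were normalized to inhibitor control and DMSO neutral control, then curve-fitted.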

human A1 receptor = biological target: T3, human A1 receptor (Homo sapiens, UniProt P30542); assay: functional cAMP (HTRF) assay, recombinant CHO cells expressing human A1 receptor, forskolin, agonist CPA
T3 construct: expressed in transfected cells; host or cells: CHO
T3 sequence (P30542 1-326): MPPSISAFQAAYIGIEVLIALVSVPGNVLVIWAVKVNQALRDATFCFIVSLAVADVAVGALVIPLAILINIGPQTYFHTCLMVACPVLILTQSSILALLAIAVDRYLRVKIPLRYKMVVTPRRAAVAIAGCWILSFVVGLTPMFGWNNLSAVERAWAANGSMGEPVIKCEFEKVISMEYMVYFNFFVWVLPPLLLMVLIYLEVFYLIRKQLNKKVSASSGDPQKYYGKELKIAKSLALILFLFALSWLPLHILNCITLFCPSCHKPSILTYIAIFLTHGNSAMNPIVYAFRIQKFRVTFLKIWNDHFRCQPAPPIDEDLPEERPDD
Method in brief: as §1

human A2A receptor = biological target: T4, human A2A receptor (Homo sapiens, UniProt P29274); assay: functional cAMP (HTRF) assay, recombinant HEK293 cells expressing human A2A receptor, agonist NECA
T4 construct: expressed in transfected cells; host or cells: HEK293
T4 sequence (P29274 whole entry): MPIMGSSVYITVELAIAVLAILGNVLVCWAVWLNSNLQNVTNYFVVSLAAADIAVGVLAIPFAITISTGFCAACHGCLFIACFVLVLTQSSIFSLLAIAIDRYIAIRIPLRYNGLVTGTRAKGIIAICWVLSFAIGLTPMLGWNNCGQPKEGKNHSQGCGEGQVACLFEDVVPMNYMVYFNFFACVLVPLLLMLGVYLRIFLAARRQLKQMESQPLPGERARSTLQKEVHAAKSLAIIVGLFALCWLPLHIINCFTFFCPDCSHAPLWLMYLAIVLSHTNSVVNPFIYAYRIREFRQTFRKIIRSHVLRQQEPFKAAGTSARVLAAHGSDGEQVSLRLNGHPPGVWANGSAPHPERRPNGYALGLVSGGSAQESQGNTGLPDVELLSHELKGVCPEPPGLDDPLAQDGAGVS

COCCn1cc(C(=O)Nc2nc3c(-c4cnn(C)c4)ccc(OC)c3[nH]2)cn1 [compound 161, N-[7-methoxy-4-(1-methyl-1H-pyrazol-4-yl)-1H-1,3-benzodiazol-2-yl]-1-(2-methoxyethyl)-1H-pyrazole-4-carboxamide]
IC50 (A2B receptors): < 1000 nM | IC50 (human A3 receptor): < 1000 nM | IC50 (human A1 receptor): > 1000 nM | IC50 (human A2A receptor): < 10 nM

COc1ccc(-c2cnn(C)c2)c2nc(NC(=O)c3ccc(C(=O)N(C)C)nc3)[nH]c12 [compound 162, N5-[7-methoxy-4-(1-methyl-1H-pyrazol-4-yl)-1H-1,3-benzodiazo1-2-yl]-N2,N2-dimethylpyridine-2,5-dicarboxamide]
IC50 (A2B receptors): < 1000 nM | IC50 (human A3 receptor): > 1000 nM | IC50 (human A1 receptor): > 1000 nM | IC50 (human A2A receptor): < 100 nM

COc1ccc(-c2cnn(C)c2)c2nc(NC(=O)c3cnc(C)s3)[nH]c12 [compound 165, N-[7-methoxy-4-(1-methyl-1H-pyrazol-4-yl)-1H-1,3-benzodiazol-2-yl]-2-methyl-1,3-thiazole-5-carboxamide]
IC50 (A2B receptors): < 1000 nM | IC50 (human A3 receptor): < 10 nM | IC50 (human A1 receptor): < 1000 nM | IC50 (human A2A receptor): < 10 nM

COc1ccc(-c2cnn(C)c2)c2nc(NC(=O)c3ccc(CN4CCN(C)CC4)cc3)[nH]c12 [compound 168, N-[7-methoxy-4-(1-methyl-1H-pyrazol-4-yl)-1H-1,3-benzodiazol-2-yl]-4-[(4-methylpiperazin-1-yl)methyl]benzamide]
IC50 (A2B receptors): > 1000 nM | IC50 (human A3 receptor): < 1000 nM | IC50 (human A1 receptor): > 1000 nM | IC50 (human A2A receptor): < 10 nM

COc1ccc(-c2cccc(F)c2)c2nc(NC(=O)N3CCC(C)(O)CC3)[nH]c12 [compound 217, N-[4-(3-fluorophenyl)-7-methoxy-1H-1,3-benzodiazol-2-yl]-4-hydroxy-4-methylpiperidine-1-carboxamide]
IC50 (A2B receptors): < 100 nM | IC50 (human A3 receptor): > 1000 nM | IC50 (human A1 receptor): < 1000 nM | IC50 (human A2A receptor): < 10 nM

COc1ccc(-c2ccccc2F)c2nc(NC(=O)N3CCC(C)(O)CC3)[nH]c12 [compound 218, N-[4-(2-fluorophenyl)-7-methoxy-1H-1,3-benzodiazol-2-yl]-4-hydroxy-4-methylpiperidine-1-carboxamide]
IC50 (A2B receptors): < 100 nM | IC50 (human A3 receptor): > 1000 nM | IC50 (human A1 receptor): < 1000 nM | IC50 (human A2A receptor): < 10 nM

COc1ccc(-c2cnn(C)c2)c2nc(NC(=O)N3CC[C@H](F)C3)[nH]c12 [compound 221, (3S)-3-fluoro-N-[7-methoxy-4-(1-methyl-1H-pyrazol-4-yl)-1H-1,3-benzodiazol-2-yl]pyrrolidine-1-carboxamide]
IC50 (A2B receptors): < 100 nM | IC50 (human A3 receptor): > 1000 nM | IC50 (human A1 receptor): > 1000 nM | IC50 (human A2A receptor): < 10 nM

COc1ccc(C2CCOCC2)c2nc(NC(=O)c3cnn(C)c3)[nH]c12 [compound 224, N-[7-methoxy-4-(oxan-4-yl)-1H-1,3-benzodiazol-2-yl]-1-methyl-1H-pyrazole-4-carboxamide]
IC50 (A2B receptors): < 100 nM | IC50 (human A3 receptor): < 1000 nM | IC50 (human A1 receptor): > 1000 nM | IC50 (human A2A receptor): < 10 nM

COCCn1cc(C(=O)Nc2nc3c(C4CCOCC4)ccc(OC)c3[nH]2)cn1 [compound 225, N-[7-methoxy-4-(oxan-4-yl)-1H-1,3-benzodiazol-2-yl]-1-(2-methoxyethyl)-1H-pyrazole-4-carboxamide]
IC50 (A2B receptors): < 100 nM | IC50 (human A3 receptor): > 1000 nM | IC50 (human A1 receptor): > 1000 nM | IC50 (human A2A receptor): < 10 nM

COCCOc1cccc(-c2ccc(OC)c3nc(NC(=O)N4CCC(C)(O)CC4)[nH]c23)c1 [compound 236, 4-hydroxy-N-{4-methoxy-7-[3-(2-methoxyethoxy)phenyl]-1H-1,3-benzodiazol-2-yl}-4-methylpiperidine-1-carboxamide]
IC50 (A2B receptors): < 100 nM | IC50 (human A3 receptor): < 1000 nM | IC50 (human A1 receptor): < 1000 nM | IC50 (human A2A receptor): < 10 nM

COc1ccc(-c2cnn(Cc3cccnc3)c2)c2[nH]c(NC(=O)N3CCC(C)(O)CC3)nc12 [compound 237, 4-hydroxy-N-(4-methoxy-7-{1-[(pyridin-3-yl)methyl]-1H-pyrazol-4-yl}-1H-1,3-benzodiazol-2-yl)-4-methylpiperidine-1-carboxamide]
IC50 (A2B receptors): < 100 nM | IC50 (human A3 receptor): < 1000 nM | IC50 (human A1 receptor): < 1000 nM | IC50 (human A2A receptor): < 100 nM

COc1ccc(-c2cccc(F)c2)c2nc(NC(=O)c3ccc(C(=O)N(C)C)cc3)[nH]c12 [compound 240, N4-[4-(3-fluorophenyl)-7-methoxy-1H-1,3-benzodiazol-2-yl]-N1,N1-dimethylbenzene-1,4-dicarboxamide]
IC50 (A2B receptors): < 10 nM | IC50 (human A3 receptor): < 1000 nM | IC50 (human A1 receptor): < 1000 nM | IC50 (human A2A receptor): < 10 nM

COc1ccc(-c2ccccc2F)c2nc(NC(=O)c3ccc(C(=O)N(C)C)cc3)[nH]c12 [compound 242, N4-[4-(2-fluorophenyl)-7-methoxy-1H-1,3-benzodiazol-2-yl]-N1,N1-dimethylbenzene-1,4-dicarboxamide]
IC50 (A2B receptors): < 10 nM | IC50 (human A3 receptor): < 1000 nM | IC50 (human A1 receptor): < 1000 nM | IC50 (human A2A receptor): < 10 nM

COc1ccc(-c2cnn(C)c2)c2nc(NC(=O)c3ccc(N4C(=O)CCC4=O)cc3)[nH]c12 [compound 248, 4-(2,5-dioxopyrrolidin-1-yl)-N-[7-methoxy-4-(1-methyl-1H-pyrazol-4-yl)-1H-1,3-benzodiazol-2-yl]benzamide]
IC50 (A2B receptors): < 100 nM | IC50 (human A3 receptor): > 1000 nM | IC50 (human A1 receptor): > 1000 nM | IC50 (human A2A receptor): < 10 nM

COc1ccc(-c2ccccc2)c2nc(NC(=O)c3c[nH]cn3)[nH]c12 [compound 253, N-(7-methoxy-4-phenyl-1H-1,3-benzodiazol-2-yl)-1H-imidazole-4-carboxamide]
IC50 (A2B receptors): < 10 nM | IC50 (human A3 receptor): < 1000 nM | IC50 (human A1 receptor): < 1000 nM | IC50 (human A2A receptor): < 10 nM

COc1ccc(-c2ccccc2)c2nc(NC(=O)c3c[nH]c(C)n3)[nH]c12 [compound 255, N-(7-methoxy-4-phenyl-1H-1,3-benzodiazol-2-yl)-2-methyl-1H-imidazole-4-carboxamide]
IC50 (A2B receptors): < 10 nM | IC50 (human A3 receptor): < 1000 nM | IC50 (human A1 receptor): < 1000 nM | IC50 (human A2A receptor): < 10 nM

COc1ccc(-c2cccnc2)c2nc(NC(=O)c3ccc(C(=O)N(C)C)cc3)[nH]c12 [compound 259, N4-[7-methoxy-4-(pyridin-3-yl)-1H-1,3-benzodiazol-2-yl]-N1,N1-dimethylbenzene-1,4-dicarboxamide]
IC50 (A2B receptors): < 10 nM | IC50 (human A3 receptor): > 1000 nM | IC50 (human A1 receptor): < 1000 nM | IC50 (human A2A receptor): < 10 nM

COc1ccc(C2=CCOC2)c2nc(NC(=O)c3ccc(C(=O)N(C)C)cc3)[nH]c12 [compound 261, N4-[4-(2,5-dihydrofuran-3-yl)-7-methoxy-1H-1,3-benzodiazol-2-yl]-N1,N1-dimethylbenzene-1,4-dicarboxamide]
IC50 (A2B receptors): < 10 nM | IC50 (human A3 receptor): < 1000 nM | IC50 (human A1 receptor): > 1000 nM | IC50 (human A2A receptor): < 10 nM

COc1cc(F)c(C2=CCOCC2)c2nc(NC(=O)c3ccc(C(=O)N(C)C)cc3)[nH]c12 [compound 262, N4-[4-(3,6-dihydro-2H-pyran-4-yl)-5-fluoro-7-methoxy-1H-1,3-benzodiazol-2-yl]-N1,N1-dimethylbenzene-1,4-dicarboxamide]
IC50 (A2B receptors): < 10 nM | IC50 (human A3 receptor): < 1000 nM | IC50 (human A1 receptor): > 1000 nM | IC50 (human A2A receptor): < 10 nM

COc1cc(F)c(C2=CCOCC2)c2nc(NC(=O)c3cnn(C)c3)[nH]c12 [compound 264, N-[4-(3,6-dihydro-2H-pyran-4-yl)-5-fluoro-7-methoxy-1H-1,3-benzodiazol-2-yl]-1-methyl-1H-pyrazole-4-carboxamide]
IC50 (A2B receptors): < 100 nM | IC50 (human A3 receptor): < 1000 nM | IC50 (human A1 receptor): > 1000 nM | IC50 (human A2A receptor): < 10 nM

COc1ccc(-c2cccc(F)c2)c2[nH]c(NC(=O)c3c[nH]cn3)nc12 [compound 265, N-[7-(3-fluorophenyl)-4-methoxy-1H-1,3-benzodiazol-2-yl]-1H-imidazole-4-carboxamide]
IC50 (A2B receptors): < 100 nM | IC50 (human A3 receptor): < 1000 nM | IC50 (human A1 receptor): < 1000 nM | IC50 (human A2A receptor): < 10 nM

COc1ccc(-c2cccnc2)c2[nH]c(NC(=O)c3c[nH]cn3)nc12 [compound 268, N-[4-methoxy-7-(pyridin-3-yl)-1H-1,3-benzodiazol-2-yl]-1H-imidazole-4-carboxamide]
IC50 (A2B receptors): < 100 nM | IC50 (human A3 receptor): > 1000 nM | IC50 (human A1 receptor): > 1000 nM | IC50 (human A2A receptor): < 10 nM

COc1ccc(-c2ccccc2)c2nc(NC(=O)c3cn(C)nc3C)[nH]c12 [compound 269, N-(7-methoxy-4-phenyl-1H-1,3-benzodiazol-2-yl)-1,3-dimethyl-1H-pyrazole-4-carboxamide]
IC50 (A2B receptors): < 100 nM | IC50 (human A3 receptor): < 1000 nM | IC50 (human A1 receptor): > 1000 nM | IC50 (human A2A receptor): < 100 nM
